From the supplement of paper PMC9663587

What was measured:
Experiment in all cases: GRmax, 72 h; higher = less effect;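 note: breast cell lines in 384-well plates, nine doses across a 10^4 range, Dye Drop imaging of viable cells vs DMSO and time-zero plates, GR 0 means no net growth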
BT549 = tested on: BT549
EVSAT = tested on: EVSAT
HCC1395 = tested on: HCC1395
HCC1569 = tested on: HCC1569
HCC38 = tested on: HCC38
MDAMB361 = tested on: MDAMB361
PDX1258 = tested on: PDX1258
PDX1328 = tested on: PDX1328
SUM1315 = tested on: SUM1315
SUM159 = tested on: SUM159
SUM52PE = tested on: SUM52PE

SMILES	GRmax, 72 h (BT549) [GR]	GRmax, 72 h (EVSAT) [GR]	GRmax, 72 h (HCC1395) [GR]	GRmax, 72 h (HCC1569) [GR]	GRmax, 72 h (HCC38) [GR]	GRmax, 72 h (MDAMB361) [GR]	GRmax, 72 h (PDX1258) [GR]	GRmax, 72 h (PDX1328) [GR]	GRmax, 72 h (SUM1315) [GR]	GRmax, 72 h (SUM159) [GR]	GRmax, 72 h (SUM52PE) [GR]
COc1ccc2c(c1)[C@]1(C[C@H]1c1ccc3c(/C=C/c4ccc(CN5C[C@@H](C)O[C@@H](C)C5)cc4)n[nH]c3c1)C(=O)N2	0.0324	-0.0524	-0.178	-0.0697	-0.403	0.272	-0.0552	-0.0338	-0.232	-0.119	0.121
COc1cccc(OCCCN)c1-c1cc(Nc2cnc(C#N)cn2)n[nH]1	-0.422	0.713	-0.491	-0.0272	-0.556	-0.386	-0.457	0.111	-0.419	-0.0281	-0.292
CC(=O)Nc1cccc(-n2c(=O)n(C3CC3)c(=O)c3c(Nc4ccc(I)cc4F)n(C)c(=O)c(C)c32)c1 (max 1 µM)	0.598	0.939	0.45	0.522	0.185	0.502	0.85	0.661	0.133	0.404	0.577
CCc1cnn2c(NCc3ccc[n+]([O-])c3)cc(N3CCCC[C@H]3CCO)nc12 (max 1 µM)	-0.292	0.0834	-0.497	-0.245	-0.442	-0.275	-0.617	-0.577	-0.667	-0.122	-0.33
CC(=O)c1c(C)c2cnc(Nc3ccc(N4CCNCC4)cn3)nc2n(C2CCCC2)c1=O (max 3.162 µM)	1.08	0.646	0.348	0.983	0.147	0.148	1.02	0.361	0.3	0.45	0.346
CCc1cncnc1N1CCN(Cc2nc3ccc(C(F)(F)F)cc3[nH]2)CC1 (max 10 µM)	0.744	0.711	0.659	0.7	0.976	0.192	0.775	0.619	0.595	0.846	0.446
CCCCOc1c(C(=O)c2c(F)cc(C)cc2F)c[nH]c2nncc1-2 (max 10 µM)	-0.149	0.279	-0.214	0.0899	-0.0129	0.216	-0.232	0.773	-0.296	0.26	0.299
CCN1CCN(Cc2ccc(Nc3ncc(F)c(-c4cc(F)c5nc(C)n(C(C)C)c5c4)n3)nc2)CC1 (max 10 µM)	0.0333	-0.545	-0.52	0.116	-0.327	-0.342	-0.331	-0.65	-0.144	-0.0575	0.332
CNc1nc(-c2ccc3c(N)n[nH]c3c2)cc(N2C[C@@H](C(=O)NC3CCCCC3)CC[C@H]2C)n1 (max 10 µM)	0.666	-0.049	0.518	0.673	0.767	-0.417	0.644	0.545	0.421	0.6	0.386
CO[C@@H](C)Cn1c(=O)n(C)c2cnc3ccc(-c4cncc(C(C)(C)O)c4)cc3c21 (max 10 µM)	-0.0177	-0.384	-0.0122	-0.0783	-0.0301	-0.988	-0.344	0.0061	-0.216	0.0637	-0.125
Cc1nn(C)c(COc2ccc(N3CCN(S(=O)(=O)N(C)C)CC3)cc2)c1-c1cccc2c(CCCOc3cccc4ccccc34)c(C(=O)O)n(CCN3CCOCC3)c12 (max 10 µM)	0.954	0.901	0.859	0.928	0.887	0.985	0.919	0.873	0.74	0.83	0.373
CN(C)CC[C@H](CSc1ccccc1)Nc1ccc(S(=O)(=O)NC(=O)c2ccc(N3CCN(Cc4ccccc4-c4ccc(Cl)cc4)CC3)cc2)cc1[N+](=O)[O-] [ABT-737] (max 10 µM)	0.936	0.697	0.861	-0.406	-0.421	0.844	0.758	-0.678	0.306	0.781	0.441
C=CCn1c(=O)c2cnc(Nc3ccc(N4CCN(C)CC4)cc3)nc2n1-c1cccc(C(C)(C)O)n1 [AZD1775] (max 10 µM)	-0.456	-0.39	-0.587	-0.167	-0.492	-0.348	-0.46	-0.32	-0.747	-0.152	-0.226
CNC(=O)c1cccc(-c2ccc3c(N4CCOC[C@@H]4C)nc(N4CCOC[C@@H]4C)nc3n2)c1 [AZD2014] (max 10 µM)	0.089	-0.21	0.274	0.0746	0.195	-0.756	-0.118	0.0715	0.0994	0.113	-0.0804
NC1(C(=O)N[C@@H](CCO)c2ccc(Cl)cc2)CCN(c2nc[nH]c3nccc2-3)CC1 [AZD5363] (max 10 µM)	0.557	-0.441	0.0739	0.0764	0.731	-0.38	0.321	0.766	0.694	0.444	0.18
C[C@@H]1COCCN1c1cc(C2([S@](C)(=N)=O)CC2)nc(-c2cc[nH]c3nccc2-3)n1 [AZD6738] (max 10 µM)	-0.099	0.742	-0.284	-0.0623	-0.271	-0.166	-0.295	0.299	-0.169	0.497	-0.174
